The test system of the assay is T1, GLL (purified laccase from Gymnopus luxurians).
T1 construct: native extracellular enzyme purified from fermentation broth; monomer, 64 kDa (SDS-PAGE and gel filtration); N-terminus AIGPVTDLHI; gene not cloned; N-terminus very unlike hypothetical G. luxurians laccases KIK69235.1, KIK58304.1, KIK56882.1
Kind of assay: spectrophotometric oxidation at […] nm, Lineweaver-Burk plot. It is filed as biochemical, Collybiopsis luxurians. To be noted: pH 2.2 (50 mM citric acid-Na2HPO4), 37 °C; ABTS 12.5-800 μM; free enzyme.

In general, Km refers to the substrate concentration at which the rate is half of its maximum. Regarding `CCn1c(=NN=c2sc3cc(S(=O)(=O)O)ccc3n2CC)sc2cc(S(=O)(=O)O)ccc21` [ABTS, 2,2′-azino-bis(3-ethylbenzothiazoline-6-sulfonic acid)], the Km came to 539 µM.
